Key:
[1] = SFA adhesion of cured PMA resin between primer-treated mica surfaces
Procedure: Atomically-smooth muscovite mica sheets were freshly cleaved (thickness of 2-5 μm) and attached on another large freshly cleaved mica backing sheet under a laminar flow hood and placed in a desiccator for clean storage. To ensure use of a fresh surface for each experiment, mica was peeled away from the backing sheet and glued on cylindrical disks using an epoxy glue (EPON 1004 F® from Exxon Chemicals). In each experiment, the mica surfaces were treated with one of the primer solutions, as described for the lap shear experiments, and then mounted in the SFA in a cross cylindrical geometry. In contrast to typical SFA experiments, which use an interferometric method to calculate the disk-disk separation distances and thus the interaction forces, in the SFA used here for adhesion testing, the disk separations were directly measured using semiconductor strain-gauged double cantilever springs (k=1000-10000 N/m)(see FIG. 67). After separating the surfaces, 100 […]1 of comonomer blend was injected between the two surfaces. Then, ˜600 mN of load was applied, followed by visible light curing for 1 min using the portable dental curing lamp (see FIG. 54G). Adhesion strength of cured polymer toward the mica was measured by detaching (unloading) two surfaces. All loading and unloading were performed using a coarse micrometer at the velocity of […]. The SFA measurements were repeated at least 5 times for each condition.

[2] = QCM-D adsorption of primers; format: physicochemical; settings: for surface concentration of adsorbed layer: Sauerbrey, after rinsing
Procedure: A ‘static cell’ (often called ‘Open Module’) QCM-D (Q-Sense, Biolin Scientific) was employed to quantitatively evaluate the adsorption of each primer onto SiO2 surface using a quartz sensor (QSX 303, Biolin Scientific). Changes in resonance frequency (ΔF) and dissipation (ΔD) of the SiO2 were recorded and used to measure the adsorbed mass and layer viscoelasticity, respectively, of the primer deposited on the sensor. In detail, pure solvent (100 μl) was dropped onto the sensor and equilibrated for ˜20-30 min. Then, 2 wt % primer solution (100 μl) was dropped onto the sensor (this is labeled “Solution Drop-in” in FIG. 51) and equilibrated until the frequency and dissipation signals stabilized. To remove unbound primers, the sensor was rinsed with solvents (this is labeled “Solvent Rinsing” in FIG. 51) and equilibrated until frequency and dissipation signals stabilized.
Mass loss of P3 and P4 during the rinsing was negligible compared to P2 which lost 60% of initial mass, indicating outstanding adsorption efficiency of catechol-containing primers on SiO2 surfaces even compared to mussel foot protein adsorption (˜30% loss of mfp-3s^3). The priming thickness of P4 estimated by QCM-D is ˜3.1 nm which agrees with the average height of AFM images (˜3.5 nm), assuming that QCM-D measures the average thickness of a uniform layer. The smaller average thickness of P4 (˜3.1 nm) compared to the molecular contour length (˜4.8 nm) may be attributed to the flexible alkyl spacer in P4. The possibility of a softer, more flexible layer with P4 is supported by a higher change in dissipation (ΔD) compared to other primers.

[3] = Lap shear test of cured PMA resin on primed tooth enamel; design: species or system human
Procedure: 1 wt % primer solution was spread on mica, glass, tooth enamel, or a silicon wafer and incubated for 1 min, followed by thorough washing with methanol (for MDP, P1-P3) or DMSO (for P4) and drying by flowing nitrogen. The surfaces were exposed to a basic aqueous solution (pH 9, using sodium hydroxide), incubated for 1 min, and drying by flowing nitrogen (see FIG. 52). The methacrylic comonomer blend (Bis-GMA, TEGDMA, DMAEMA and CQ) was packed in a gelatin capsule (size #4, 5-mm diameter, Torpac Inc.) and placed up on top of the primer-treated substrates. The comonomer blend was cured (or crosslinked) for 1 min using a portable dental curing lamp (Foshan Liang Ya Dental Co., LY-A180, 420-480 nm, 1200-2000 mW·cm^−2) (see FIG. 53). Uniaxial compression was applied to the capsule at a rate of 0.05 inch min^−1 using a materials testing system (MTS Bionix 200) until the capsules are separated from the substrate. The lap shear fracture measurements were repeated at least 10 times for each condition.

[4] = Surface forces apparatus (SFA) cohesion/adhesion between thin films on mica; format: physicochemical; settings: for cohesion (or adhesion) energy Wc: symmetric films adsorbed from 5 mM, DI water
Procedure: The interaction between two surfaces can be measured with nano-Newton level force resolution and Angstrom level resolution in the separation distance between the surfaces. The details of the SFA techniques have been describe in a work by Israelachvili et al. In a typical SFA experiment (FIG. 2C), the distance and the force between the surfaces are measured simultaneously. To begin with, the instrument is calibrated at large separation distances. When the two surfaces are not interacting, i.e., they are separated by large distances, the change in the separation between them is equal to the distance through which the motor moves the lower surface towards or away from the upper surface (or the upper surface driven by the piezo-tube moves towards the lower surface). However, once the surfaces are close enough to start interacting with each other, the measured separation distance deviates from the expected separation calibrated when there is no force between the surfaces. This deviation is due to the deflection of the double cantilever spring and is directly proportional to the force acting normally between the two opposing surfaces. Thus the normal force can be measured using Hooke's law, F=kΔx, where k is the spring constant of the double-cantilever spring and Δx=Dactual−Dapplied is the deflection of the spring, determined by taking the difference between the applied change in position of one of the surfaces Dapplied and the actual change in distance measured between the surfaces Dactual. The actual distance, Dactual, between the surfaces can be measured by multiple beam interferometry (MBI) and will be discussed below.
The distance between the surfaces, shape of the interface and the refractive index of the media between the surfaces can be accurately determined by Multiple Beam Interferometry (MBI) technique. In this technique, white light is directed through two back-silvered mica surfaces (or uniform and same thickness). As a white light passes between the mica surfaces, it undergoes interference due to the optical trap set up by the back silver on each of these surfaces giving rise to discrete wavelengths of light (FIG. 2C). These wavelengths of light are resolved in a spectrometer creating interference fringes known as ‘fringes of equal chromatic order’ (FECO). Since mica is birefringent, the FECO appears as doublets and termed as β and γ. Alternate fringes are termed as odd and even fringes with odd fringes having nodes at the center and even fringes with anti-nodes in the center. The FECO is then recorded on a camera and analyzed to determine the distance between the surfaces using the following equations: […]
The adhesion/cohesion energy of the synthetic zwitterionic molecules was investigated in SFA (SurForce LLC, Santa Barbara, CA). Two molecularly smooth freshly cleaved back silvered mica surfaces glued on cylindrical silica discs of radius of curvature, R˜2 cm, were mounted in the SFA and 50 μL of a colloidal dispersion of the synthetic molecules in DI water were injected between the surfaces at different concentrations (C=0.5-5 mM) and the forces between the thin films of the molecules were measured by Multiple Beam Interferometry (MBI). The adhesion forces between Z-Cat-C10 molecules on various surfaces, e.g., silica and copper, were also measured by AFM (MFP-3D, Asylum research, Goleta, CA) in DI water and ambient conditions, respectively, at room temperature. AFM probes with a silicon dioxide particle (10, 5, and 1 μm, respectively) on a silicon nitride (SN) cantilever-0.6 N m^−1 were purchased from Novascan Technologies, Inc (Ames, IA). Cantilever spring constants were measured for each force run. Images of Z-Cat-C10 coating on silicon wafer and copper plates were visualized in an AFM. […]

[5] = Cyclic voltammetry of catechol oxidation; format: physicochemical; settings: DI water, scan rate 1 mV s−1, Ag/AgCl reference
Procedure: (§1) Cyclic voltammetry was performed on a Versastat 3 potentiostat from Ametek Co. These analyses were carried out using a three-electrode cell: a Pt wire as the counter electrode, an Ag/AgCl reference electrode, and a Carbon paste electrode (CPE) served as the working electrode. CPE is the best choice for adhesive materials because of its ability to be completely polished before each experiment. Catechol auto-oxidation was avoided by performing all electrochemical experiments with degassed deionized water in a glove bag under argon. Scan rate 1 mV s-1 was used for all experiments. CV of 5 mM synthesized polymers and 5 mM methyl catechol, a simple catechol-containing compound, were compared. Oxidation of Catechol carrying molecules occurred at more positive potentials than methyl catechol, indicating the unique structure of the dispersions provide shielding effects that stabilized catechol groups (FIG. 3).
Cyclic voltammetry was performed on a Versastat 3 potentiostat from Ametek Co. (Berwyn, PA). These analyses were carried out using a three-electrode cell: a Pt wire as the counter electrode, an Ag/AgCl reference electrode, and a Carbon paste electrode (CPE) served as the working electrode. CPE is the best choice for adhesive materials because of its ability to be completely polished before each experiment.
as §1, with “s^−1” for “s-1”, “molecules” for “polymers”, “groups. Z-Cat-Ben with an oxidation peak at 840 mV is more resistant to oxidation than the other species” for “groups”, “42).” for “3).”

## C=CC(=O)OCc1ccccc1 [P1, Benzyl acrylate, reference compound]
[1]
  increase in adhesion vs plain mica (no primer): no increase in adhesion
[2]
  surface concentration of adsorbed layer: 0 ng/cm^2
[3]
  lap shear strength σshear,max: no increase in the lap shear strength

## C=CC(=O)OCc1ccc(O)cc1 [P2, 4-Hydroxybenzyl acrylate]
[1]
  increase in adhesion vs plain mica (no primer): no increase in adhesion
[2]
  surface concentration of adsorbed layer: 230 ng/cm^2
[2]; of initial mass
  mass loss during rinsing: 60%
[3]
  lap shear strength σshear,max: no increase in the lap shear strength

## CN(C)CCOP(=O)(O)OCCCc1ccc(O)c(O)c1 [Z-Cat-C6]
[4]; mica
  cohesion (or adhesion) energy Wc: 9.6±1.1 mJ m^−2

## Cc1ccc(O)c(O)c1 [4-methylcatechol, reference compound]
[5]
  E1/2: ~0.12 V
[5]; listed as methyl catechol
  E1/2: 0.124 V

## C=C(C)C(=O)OCCCCCCCCCCOP(=O)(O)O [MDP, 10-methacryloyloxydecyl dihydrogen phosphate, reference compound]
[3]
  lap shear strength σshear,max: 3.1±0.2 MPa

## CN(C)CCOP(=O)(O)OCCCc1ccc(O)c(O)c1 [Z-Cat-C8]
[4]; 0.5 mM concentration
  interaction energy: ~22 mJ m^−2
[4]; mica
  cohesion (or adhesion) energy Wc: 2.5±0.3 mJ m^−2

## CN(C)CCOP(=O)(O)OCCCc1ccccc1 [Z-Ben-C8]
[4]; deposited at 0.5 mM in DI water
  film (hard-wall) thickness: 2 nm
[4]; films adsorbed from 5 mM, mica
  hard-wall thickness: ~5 nm
[4]; mica
  cohesion (or adhesion) energy Wc: without cohesive tendencies

## CN(C)CCOP(=O)(O)OCCCc1ccc(O)c(O)c1 [Z-Cat-C4]
[4]; mica
  cohesion (or adhesion) energy Wc: 19.2±2.4 mJ m^−2

— patent US12415939B2, “Nano-adhesive and surface primer compound and use thereof” (The Regents of the University of California, priority 2015, dated 2025)
